Measurements from paper PMC11643494, “Structure–Activity Relationship Studies in a Series of 2-Aryloxy-N-(pyrimidin-5-yl)acetamide Inhibitors of SLACK Potassium Channels” (Molecules, 2024).
Like-named read-outs stand apart in the source and are kept apart here.

Columns and labels:
hERG (Kv11.1) channel = tested on: hERG (Kv11.1) channel; parameters: method as in PMID 32408169; conditions: 10 µM; cited from earlier work
WT SLACK [1] = tested on: WT SLACK; parameters: method as in PMID 32408169; conditions: whole-cell patch clamp electrophysiology; read-out: IC50 versus WT SLACK; cited from earlier work
SLACK = tested on: SLACK; parameters: method as in earlier work; conditions: patent application, no specific values reported; cited from earlier work
WT human SLACK = molecular target: T1, WT human SLACK (Homo sapiens, UniProt Q5JUK3); test: Whole-cell automated patch clamp (APC) in CHO-K1 cells stably expressing WT human SLACK; type: cell-based; conditions: for IC50 / WT SLACK inhibition, result in words: APC; for IC50: CHO-K1 cells stably expressing WT human SLACK, averages (n ≥ 3); for Fold less potent than hit 10 (SLACK inhibition): ratio of WT SLACK APC IC50 to hit 10; for SLACK Imax: maximum inhibition at 30 µM test compound standardized to VU0606170 (set at 100%), WT human SLACK; for WT SLACK inhibition, result in words: concentrations 0.125 to 30 µM
T1 construct: host or cells: CHO-K1
T1 sequence (Q5JUK3 1-1235 isoform Q5JUK3-3): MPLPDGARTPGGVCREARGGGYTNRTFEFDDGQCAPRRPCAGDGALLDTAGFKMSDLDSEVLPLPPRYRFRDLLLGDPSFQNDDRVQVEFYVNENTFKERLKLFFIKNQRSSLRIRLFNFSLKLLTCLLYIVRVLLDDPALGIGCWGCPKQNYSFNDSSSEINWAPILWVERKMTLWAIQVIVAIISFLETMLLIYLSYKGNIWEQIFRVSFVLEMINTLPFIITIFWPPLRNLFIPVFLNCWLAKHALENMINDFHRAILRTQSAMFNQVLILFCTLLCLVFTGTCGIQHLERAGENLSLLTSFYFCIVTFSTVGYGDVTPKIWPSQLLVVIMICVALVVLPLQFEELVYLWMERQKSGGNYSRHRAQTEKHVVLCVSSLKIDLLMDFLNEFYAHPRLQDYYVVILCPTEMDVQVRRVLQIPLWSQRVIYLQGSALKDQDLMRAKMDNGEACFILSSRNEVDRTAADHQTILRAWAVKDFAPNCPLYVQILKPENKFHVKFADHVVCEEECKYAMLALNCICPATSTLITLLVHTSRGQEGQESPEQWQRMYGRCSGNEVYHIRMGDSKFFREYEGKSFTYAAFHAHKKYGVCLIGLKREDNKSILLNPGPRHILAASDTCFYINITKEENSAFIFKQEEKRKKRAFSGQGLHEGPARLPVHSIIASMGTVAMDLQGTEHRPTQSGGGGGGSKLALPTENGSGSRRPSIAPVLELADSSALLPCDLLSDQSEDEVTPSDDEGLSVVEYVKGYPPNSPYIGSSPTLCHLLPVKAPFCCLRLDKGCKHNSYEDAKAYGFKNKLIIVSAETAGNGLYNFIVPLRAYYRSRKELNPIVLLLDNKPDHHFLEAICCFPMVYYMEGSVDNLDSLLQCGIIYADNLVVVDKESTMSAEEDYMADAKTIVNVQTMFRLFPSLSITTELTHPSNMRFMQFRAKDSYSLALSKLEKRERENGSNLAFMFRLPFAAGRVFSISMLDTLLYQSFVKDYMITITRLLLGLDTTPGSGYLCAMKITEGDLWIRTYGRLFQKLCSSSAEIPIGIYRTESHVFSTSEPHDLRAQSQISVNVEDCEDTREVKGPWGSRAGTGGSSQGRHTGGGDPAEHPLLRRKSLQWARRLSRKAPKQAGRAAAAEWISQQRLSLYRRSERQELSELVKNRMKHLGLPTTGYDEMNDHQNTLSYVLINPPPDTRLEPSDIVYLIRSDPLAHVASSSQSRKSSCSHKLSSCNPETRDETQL
Method: Using concentrations ranging from 0.125 to 30 µM in half-log steps, a concentration–response relationship was generated for each new analog using our APC assay in CHO-K1 cells stably expressing WT SLACK. A minimum of three cells, i.e., replicates, were collected per concentration for each analog.
Automated patch clamp recording was performed with a SyncroPatch 768 PE system (Nanion, Munich, Germany) as previously described. Whole-cell recordings were performed at room temperature. Cells were harvested by first washing with PBS without Mg^2+ or Ca^2+ (Gibco, Billings, MT, USA) to remove cell culture medium, followed by dissociation with TryPLE (Gibco, Billings, MT, USA). Cells were then resuspended and diluted to 200,000 cells/mL in external solution. External solution contained 105 mM NaCl, 4 mM KCl, 1 mM MgCl2, 5 mM CaCl2, 10 mM HEPES, 40 mM N-Methyl-D-glucamine chloride, titrated to pH 7.4 with NaOH and osmolarity of 300 mOsm/kg; internal solution contained 70 mM NaCl, 70 mM KF, 10 mM KCl, 5 mM EGTA, 5mM HEPES, titrated to a pH 7.2 with KOH and osmolarity of 295 mOsm/kg.
The APC protocol was set as following: Cells were held at […] −80 mV for 100 ms, then a ramp protocol was performed from −100 mV to 80 mV at 0.4 mV/ms, hold the cell at −80 mV for another 100 ms, then steps were performed at −20 mV, 0 mV, +20 mV, +40 mV, and +60 mV for 100 ms of each step. Whole-cell currents were measured at 0 mV and normalized to current after external buffer addition.

WT SLACK [2] = conditions: whole-cell APC; read-out: APC IC50 versus WT SLACK; cited from earlier work
hERG = conditions: Tl+-flux, 10 µM; cited from earlier work
A934T SLACK = conditions: cited from earlier work

## Cc1cccc(CC(=O)Nc2cnn(-c3cccc(C(=O)NCc4ccccc4-n4cncn4)c3)c2)c1 [Compound 1]
hERG (Kv11.1) channel
  hERG (Kv11.1) channel blockade: almost completely blocked the channel
WT SLACK [1]
  IC50: 3200 nM

## O=C(N[C@@H]1CCc2cc(Cl)ccc21)c1ccc(S(=O)(=O)N2CCCC2)s1 [Compound 5]
SLACK
  IC50: < 1000 nM
  SLACK IC50: less than one micromolar

## O=C(Nc1cccc(C(F)(F)F)c1)c1ccc(CSc2nnnn2-c2ccccc2)cc1 [Compound 3]
hERG (Kv11.1) channel
  hERG (Kv11.1) channel blockade: 45%
WT SLACK [1]
  IC50: 1600 nM

## Cc1cccc(Oc2ncc(NC(=O)C(C)(C)Oc3ccc(Cl)cc3)cn2)c1 [Analog 22]
WT human SLACK
  IC50: 2300 nM

## CC(C)(Sc1ccc(Cl)cc1)C(=O)Nc1cnc(Oc2ccccc2F)nc1 [Analog 68]
WT human SLACK
  IC50: 4100 nM
  Fold less potent than hit 10 (SLACK inhibition): approximately 3 fold

## CC(C)(Oc1ccc(Cl)cc1)C(=O)Nc1ccc(Oc2ccccc2F)cc1 [Analog 88]
WT human SLACK
  IC50: 4900 nM
  SLACK Imax: 92%
  Fold less potent than hit 10 (SLACK inhibition): 3.5 fold
WT human SLACK; WT SLACK APC IC50
  Fold less active than pyridine 86: 1.6 fold

## CC(C)(Oc1ccc(Cl)cc1)C(=O)Nc1cnc(Oc2cc(F)cc(F)c2)nc1 [Analog 42]
WT human SLACK
  IC50: 1400 nM

## CN(Cc1ccc(Cl)cc1)C(=O)Nc1cnc(Oc2ccccc2F)nc1 [Analog 82]
WT human SLACK
  IC50: > 10000 nM
  SLACK Imax: 79%

## COc1cccc(Oc2ncc(NC(=O)C(C)(C)Oc3ccc(Cl)cc3)cn2)c1 [Analog 28]
WT human SLACK
  IC50: 2400 nM
  SLACK Imax: 101%

## CC(C)(Oc1ccc(Cl)cc1)C(=O)Nc1cnc(Sc2ccccc2F)nc1 [Analog 63]
WT human SLACK
  IC50: 890 nM
  SLACK Imax: 101%

## CC(C)(Oc1ccc(Cl)cc1)C(=O)Nc1cnc(Oc2ccc(C#N)cc2)nc1 [Analog 35]
WT human SLACK
  IC50: 1100 nM

## CN(c1ncc(NC(=O)C(C)(C)Oc2ccc(Cl)cc2)cn1)c1ccccc1F [Analog 65]
WT human SLACK
  IC50: 2100 nM

## CC(C)(Oc1ccc(C#N)cc1)C(=O)Nc1cnc(Oc2ccccc2F)nc1 [Analog 59]
WT human SLACK
  IC50: > 10000 nM
  WT SLACK inhibition, result in words: only weak inhibitors
  SLACK Imax: 109%

## CC(C)(Oc1ccccc1F)C(=O)Nc1cnc(Oc2ccccc2F)nc1 [Analog 45]
WT human SLACK
  IC50: > 10000 nM
  WT SLACK inhibition, result in words: only weak inhibitors
  SLACK Imax: 25%

## CC(C)(Oc1ccc(Cl)cc1)C(=O)Nc1cnc(Nc2ccccc2F)nc1 [Analog 64]
WT human SLACK
  WT SLACK inhibition, result in words: not tolerated

## O=C(Nc1cccc(C(F)(F)F)c1)c1ccc2nc(N3C(=O)c4ccccc4C3=O)sc2c1 [Compound 2]
hERG (Kv11.1) channel
  hERG (Kv11.1) channel blockade: 10–20%
WT SLACK [1]
  IC50: 3000 nM

## O=C(COc1ccc(Cl)cc1)Nc1cnc(Oc2ccccc2F)nc1 [Analog 75]
WT human SLACK
  WT SLACK inhibition, result in words: inactive

## CC(C)(Oc1ccc(S(C)(=O)=O)cc1)C(=O)Nc1cnc(Oc2ccccc2F)nc1 [Analog 60]
WT human SLACK
  WT SLACK inhibition, result in words: inactive up to the top concentration of 30 µM

## CN(c1ccc(S(C)(=O)=O)cc1)c1ncc(NC(=O)C(C)(C)Oc2ccc(Cl)cc2)cn1 [Analog 67]
WT human SLACK
  IC50: 1400 nM
  SLACK Imax: 101%

## CC(C)(Oc1ccccc1OC(F)(F)F)C(=O)Nc1cnc(Oc2ccccc2F)nc1 [Analog 56]
WT human SLACK
  WT SLACK inhibition, result in words: inactive up to the top concentration of 30 µM

## CC(C)(Oc1cccc(OC(F)(F)F)c1)C(=O)Nc1cnc(Oc2ccccc2F)nc1 [Analog 57]
WT human SLACK
  IC50: 4600 nM
  SLACK Imax: 98%

## CNCc1ccc(Cl)cc1 [Analog 80]
WT human SLACK
  WT SLACK inhibition, result in words: only a weak inhibitor

## O=C(CCc1ccc(Cl)cc1)Nc1cnc(Oc2ccccc2F)nc1 [Analog 74]
WT human SLACK
  IC50: 5100 nM
  SLACK Imax: 102%

## CC(C)(Oc1ccc(Cl)cc1)C(=O)Nc1cnc(Oc2cccc(C(F)(F)F)c2)nc1 [Analog 25]
WT human SLACK
  IC50: 1900 nM
  SLACK Imax: 101%

## CC(C)(Cc1ccc(Cl)cc1)C(=O)Nc1cnc(Oc2ccccc2F)nc1 [Analog 73]
WT human SLACK
  IC50: 7200 nM
  Fold less potent than hit 10 (SLACK inhibition): 5 fold

## Cc1ccc2cccc(S(=O)(=O)N3CC(c4nc(-c5ccc(F)cc5)no4)C3)c2n1 [Compound 7]
WT SLACK [2]
  IC50: 320 nM
hERG
  hERG activity, result in words: inactive
A934T SLACK
  A934T SLACK inhibition, result in words: potent inhibitor

## CC(C)(Oc1ccc(Cl)cc1)C(=O)Nc1cnc(Oc2ccc(C(F)(F)F)cc2)nc1 [Analog 26]
WT human SLACK
  IC50: 1000 nM

## CC(C)(Oc1ccc(Cl)cc1)C(=O)Nc1cnc(Oc2c(F)cccc2Cl)nc1 [Analog 43]
WT human SLACK
  IC50: 580 nM
  SLACK Imax: 91%

## COc1ccccc1Oc1ncc(NC(=O)C(C)(C)Oc2ccc(Cl)cc2)cn1 [Analog 27]
WT human SLACK
  IC50: 1500 nM
  SLACK Imax: 101%

## CC(C)(Nc1ccc(Cl)cc1)C(=O)Nc1cnc(Oc2ccccc2F)nc1 [Analog 69]
WT human SLACK
  IC50: 2700 nM
  Fold less potent than hit 10 (SLACK inhibition): ~2 fold

## CC(C)(Oc1ccc(Cl)cc1)C(=O)Nc1cnc(Oc2cccc(C#N)c2)nc1 [Analog 34]
WT human SLACK
  IC50: 1700 nM

## CC(C)(Oc1ccc(Cl)cc1)C(=O)Nc1cnc(Oc2ccccc2C#N)nc1 [Analog 33]
WT human SLACK
  IC50: 940 nM

## CC(C)(Oc1ccc(Cl)cc1)C(=O)Nc1cnc(Oc2ccc(F)c(F)c2)nc1 [Analog 41]
WT human SLACK
  IC50: 1700 nM

## CC(C)(Oc1ccc(Cl)cc1)C(=O)Nc1ccc(Oc2ccccc2F)nc1 [Analog 86]
WT human SLACK
  IC50: 3100 nM
  Fold less potent than hit 10 (SLACK inhibition): ~2 fold

## CC(C)(Oc1ccc(Cl)cc1)C(=O)Nc1ccc(Oc2ccccc2F)cn1 [Analog 89]
WT human SLACK
  IC50: > 10000 nM
  WT SLACK inhibition, result in words: only weak inhibitors
  SLACK Imax: 52%

## CC(C)(Oc1ccc(Cl)cc1)C(=O)Nc1cnc(Oc2ccccc2OC(F)(F)F)nc1 [Analog 30]
WT human SLACK
  IC50: 1400 nM

## CC(C)(Oc1cccc(C(F)(F)F)c1)C(=O)Nc1cnc(Oc2ccccc2F)nc1 [Analog 54]
WT human SLACK
  IC50: 3700 nM
  SLACK Imax: 99%
